# According to ChEMBL document CHEMBL1201862, “PubChem BioAssay data set” (2004):
# The source made the active and inactive calls.
# Key:
# INS1 = test: beta cell apoptosis inhibitors, cytokine rescue, dose response, luminescence, retest (AID 449756); format: functional, cell-based; conditions: Rattus norvegicus, INS1;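 further: cell death triggered by IL-1 beta plus TNF-alpha plus IFN-gamma mixture; protective hits raise ATP signal compared with cytokine alone wells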
# [1] = control 3'UTR Renilla luciferase suppression, dose response, counter-screen for Shn3 inhibitor project, cell-based, Clone20-Shn3RL, cherry-picked (AID 624133); format: functional
# Streptococcus = test: Group A Streptococcus viability loss, dose response, counter-screen for streptokinase expression inhibitor project, luminescence, BacTiterGlo (AID 1915); format: functional, organism-based;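 further: potency for reduction of bacterial viability or growth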
# [2] = cytotoxicity in MIN6 insulinoma cells, dose response, cytotoxicity control, cell-based, mouse insulinoma (AID 2122); format: functional;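 further: confirmatory high-throughput counterscreen run to flag cytotoxic compounds; mouse MIN-6 beta cells carrying an insulin promoter eGFP reporter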
# Streptokinase A = molecular target: T1, Streptokinase A (Streptococcus pyogenes serotype M1, UniProt P10520); test: S. pyogenes streptokinase expression inhibitors, potency, dose response, plasminogen activation absorbance, OD405 (AID 1914); format: functional, Streptococcus pyogenes M1 GAS;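 further: secreted streptokinase activity via plasminogen activation per viability signal from cell pellet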
# T1 sequence (P10520 whole entry): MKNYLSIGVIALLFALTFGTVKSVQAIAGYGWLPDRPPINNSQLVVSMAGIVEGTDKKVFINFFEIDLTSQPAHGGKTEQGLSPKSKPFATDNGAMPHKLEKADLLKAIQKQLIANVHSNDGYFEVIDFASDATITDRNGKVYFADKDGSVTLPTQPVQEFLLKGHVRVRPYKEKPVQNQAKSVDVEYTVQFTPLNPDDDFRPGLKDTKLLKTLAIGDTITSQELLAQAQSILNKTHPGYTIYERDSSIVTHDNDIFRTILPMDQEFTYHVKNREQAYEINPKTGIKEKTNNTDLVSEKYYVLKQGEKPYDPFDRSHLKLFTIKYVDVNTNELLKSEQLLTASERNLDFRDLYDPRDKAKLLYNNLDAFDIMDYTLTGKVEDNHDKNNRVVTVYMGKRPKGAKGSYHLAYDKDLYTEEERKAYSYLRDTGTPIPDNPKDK
# cells [3] = format: functional, cell-based
# H9c2 = test: cells; format: functional, cell-based; conditions: Rattus norvegicus, H9c2, Myocardium;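 further: confirmatory concentration-response retest of ultra-high-throughput screening hits for modulation of myocardial damage; cell death induced by hydrogen peroxide oxidative stress; compound pretreatment for 60 min then peroxide exposure for 2 h; potency is for protecting the cells against peroxide damage rather than for killing them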
# [4] = Shn3 3'UTR reporter inhibitors, dose response, cell-based, Clone20 osteoblasts, firefly luciferase, cherry-picked (AID 624132); format: functional;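 further: firefly luciferase luminescence from reporter carrying the Shn3 3'UTR in osteoblasts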
# cells [5] = format: functional, cell-based; remark: listed apart in the source
# [6] = HepG2 cell cytotoxicity, dose response, cytotoxicity control for Shn3 inhibitor project, CellTiter-Glo, cherry-picked (AID 624134); format: functional, cell-based
# [7] = tested on: Streptococcus sp. 'group A'; test: growth inhibition of control SK(-) GAS strain, dose response, counter-screen for streptokinase expression inhibitor project, luminescence, kanamycin, BacTiterGlo, confirmation (AID 1900); format: functional, organism-based
# [8] = insulin promoter down-regulators in MIN6 cells, imaging, high-content screening, mouse beta cells (AID 1628); format: functional
# Bcl-2-related protein A1 = molecular target: T2, Bcl-2-related protein A1 (Mus musculus, UniProt Q07440); format: functional;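 further: confirmatory dose–response counterscreen on Bfl-1, used to check hits from a UBC13 polyubiquitin inhibitor campaign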
# T2 sequence (Q07440 whole entry): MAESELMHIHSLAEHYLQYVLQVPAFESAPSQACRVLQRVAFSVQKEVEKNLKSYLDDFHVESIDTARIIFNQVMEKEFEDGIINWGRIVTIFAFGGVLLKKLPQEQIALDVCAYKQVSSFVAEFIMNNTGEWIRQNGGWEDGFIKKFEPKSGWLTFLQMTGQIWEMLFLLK
# HEK293 [9] = test: cells; conditions: Homo sapiens
# [10] = molecular target: T3, Ubiquitin-conjugating enzyme E2 N (Homo sapiens, UniProt P61088); format: functional
# T3 sequence (P61088 whole entry): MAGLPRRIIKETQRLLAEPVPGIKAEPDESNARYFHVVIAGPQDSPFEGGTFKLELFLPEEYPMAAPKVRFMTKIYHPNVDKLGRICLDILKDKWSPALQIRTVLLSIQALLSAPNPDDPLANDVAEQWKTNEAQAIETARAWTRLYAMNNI
# HEK293 [11] = test: cells; conditions: Homo sapiens; remark: listed apart in the source
# [12] = molecular target: T3, Ubiquitin-conjugating enzyme E2 N; format: functional; remark: listed apart in the source
# [13] = growth suppression of PTEN-null colon cells, dose response, cell-based, HCT116 PTEN knockout (AID 1047); format: functional;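 further: HCT116 colon tumor cells with PTEN knocked out; cells exposed to compound for 60 hours before readout; potency for loss of cell viability measured by luminescence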
# [14] = molecular target: T4, Zinc finger protein mex-5 (Caenorhabditis elegans, UniProt Q9XUB2); test: MEX-5/TCR-2 RNA interaction inhibitors, dose response, biochemical, C. elegans, fluorescence polarization (AID 1960)
# T4 sequence (Q9XUB2 whole entry): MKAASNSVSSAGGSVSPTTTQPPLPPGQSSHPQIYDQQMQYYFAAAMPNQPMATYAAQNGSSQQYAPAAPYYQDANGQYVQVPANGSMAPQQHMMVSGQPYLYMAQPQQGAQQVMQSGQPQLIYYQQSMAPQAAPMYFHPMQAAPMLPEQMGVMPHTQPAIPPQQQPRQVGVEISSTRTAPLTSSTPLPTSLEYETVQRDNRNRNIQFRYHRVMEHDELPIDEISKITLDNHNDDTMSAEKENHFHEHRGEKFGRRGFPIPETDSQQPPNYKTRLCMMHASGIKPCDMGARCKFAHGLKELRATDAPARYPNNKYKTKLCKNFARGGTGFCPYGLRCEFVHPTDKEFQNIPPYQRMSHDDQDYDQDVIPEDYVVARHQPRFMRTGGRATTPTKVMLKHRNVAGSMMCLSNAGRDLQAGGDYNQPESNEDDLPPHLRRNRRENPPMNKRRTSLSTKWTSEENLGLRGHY
# [15] = molecular target: T5, Runt-related transcription factor 1/Core-binding factor subunit beta (Homo sapiens, UniProt Q01196+Q13951); test: inhibitors of RUNX1 Runt–CBFb-SMMHC binding, primary screen, biochemical, FRET, Cerulean-Runt, Venus-CBFb-SMMHC, uHTS (AID 1434); format: protein assay;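 further: partner is the CBFb-SMMHC leukemia fusion protein rather than wild-type CBFb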
# Aspartyl aminopeptidase = molecular target: T6, Aspartyl aminopeptidase (Plasmodium falciparum 3D7, UniProt Q8I2J3)
# T6 sequence (Q8I2J3 whole entry): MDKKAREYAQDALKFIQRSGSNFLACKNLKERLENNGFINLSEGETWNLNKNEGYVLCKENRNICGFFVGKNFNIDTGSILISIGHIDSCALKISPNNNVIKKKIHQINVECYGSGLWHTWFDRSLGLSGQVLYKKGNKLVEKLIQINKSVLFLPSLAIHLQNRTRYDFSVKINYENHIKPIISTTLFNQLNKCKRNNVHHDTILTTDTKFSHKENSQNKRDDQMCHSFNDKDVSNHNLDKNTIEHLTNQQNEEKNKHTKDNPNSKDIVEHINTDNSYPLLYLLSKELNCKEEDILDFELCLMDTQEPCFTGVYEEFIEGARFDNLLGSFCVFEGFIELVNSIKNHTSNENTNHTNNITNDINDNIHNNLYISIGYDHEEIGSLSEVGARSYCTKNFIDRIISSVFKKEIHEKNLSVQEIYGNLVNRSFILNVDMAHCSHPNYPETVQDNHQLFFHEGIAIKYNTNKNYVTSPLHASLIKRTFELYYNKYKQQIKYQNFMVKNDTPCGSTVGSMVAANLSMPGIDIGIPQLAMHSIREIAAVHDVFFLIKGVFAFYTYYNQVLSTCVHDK
# Procathepsin L = Procathepsin L (Homo sapiens, UniProt P07711)
# [16] = growth suppression of beta-catenin-knockout colon cells, dose response, cell-based, HCT116, human colon tumor (AID 1045); format: functional;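 further: HCT116 colon tumor cells with beta catenin knocked out; cells exposed to compound for 60 hours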
# [17] = molecular target: T7, RNA-binding protein pos-1 (Caenorhabditis elegans, UniProt G5EF15); test: inhibitors of POS-1/mex-3 RNA binding, dose response, biochemical, fluorescence polarization (AID 1964);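 further: purified POS-1 fused to maltose binding protein made in E. coli; potency of compounds blocking POS-1 binding to fluorescent RNA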
# T7 sequence (G5EF15 whole entry): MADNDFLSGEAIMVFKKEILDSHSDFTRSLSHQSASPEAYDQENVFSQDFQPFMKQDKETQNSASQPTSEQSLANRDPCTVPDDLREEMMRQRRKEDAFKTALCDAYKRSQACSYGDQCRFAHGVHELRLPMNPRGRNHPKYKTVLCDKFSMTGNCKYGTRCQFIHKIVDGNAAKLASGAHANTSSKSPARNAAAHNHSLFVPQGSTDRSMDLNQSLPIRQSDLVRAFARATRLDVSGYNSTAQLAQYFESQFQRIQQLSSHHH
# Large T antigen = Large T antigen (Simian virus 40, UniProt P03070); format: functional, Betapolyomavirus macacae;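 further: Confirmatory-stage PubChem screen for compounds that inhibit SV40 T antigen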
# [18] = molecular target: T5, Runt-related transcription factor 1/Core-binding factor subunit beta; test: inhibitors of RUNX1 Runt–CBFb-SMMHC binding, biochemical, TR-FRET (AID 1438); format: protein assay
# [19] = molecular target: FAD-linked sulfhydryl oxidase ALR (Homo sapiens, UniProt P55789); test: inhibitors of human ALR sulfhydryl oxidase, dose response, biochemical, H2O2 detection, luminescence, cherry-pick (AID 493248)
# [20] = molecular target: Lysine-specific demethylase 4C (Homo sapiens, UniProt Q9H3R0); test: GASC-1 (JMJD2C) histone demethylase inhibitors, dose response, biochemical, DELFIA europium, cherry-picked samples (AID 488835); format: functional
# Protein Wnt-3a = Protein Wnt-3a (Mus musculus, UniProt P27467); test: Wnt3a-driven reporter signaling inhibition, dose response, selectivity assay for Gli-SUFU antagonist project, Wnt-LIGHT cells, luminescence (AID 651570); format: functional; conditions: read-out: IC50_Mean;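 further: Wnt-LIGHT reporter cells stimulated with conditioned medium from Wnt3a-producing cells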
# [21] = molecular target: Voltage-dependent T-type calcium channel subunit alpha-1H (Homo sapiens, UniProt O95180); format: functional;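 further: channel activity triggered by adding a high calcium stimulation buffer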
# [22] = molecular target: Intestinal-type alkaline phosphatase (Mus musculus, UniProt P24822); test: PubChem AID 488785; format: functional
# [23] = molecular target: Intestinal-type alkaline phosphatase (Homo sapiens, UniProt P09923); test: inhibition of human intestinal alkaline phosphatase – biochemical, dose response (AID 488876); format: functional
# [24] = molecular target: T8, Alkaline phosphatase, tissue-nonspecific isozyme (Homo sapiens, UniProt P05186); test: TNAP enzyme inhibition by screening hits, dose response, selectivity assay for mouse IAP inhibitor project, biochemical, human TNAP, uHTS hits (AID 488906); format: functional
# T8 sequence (P05186 whole entry): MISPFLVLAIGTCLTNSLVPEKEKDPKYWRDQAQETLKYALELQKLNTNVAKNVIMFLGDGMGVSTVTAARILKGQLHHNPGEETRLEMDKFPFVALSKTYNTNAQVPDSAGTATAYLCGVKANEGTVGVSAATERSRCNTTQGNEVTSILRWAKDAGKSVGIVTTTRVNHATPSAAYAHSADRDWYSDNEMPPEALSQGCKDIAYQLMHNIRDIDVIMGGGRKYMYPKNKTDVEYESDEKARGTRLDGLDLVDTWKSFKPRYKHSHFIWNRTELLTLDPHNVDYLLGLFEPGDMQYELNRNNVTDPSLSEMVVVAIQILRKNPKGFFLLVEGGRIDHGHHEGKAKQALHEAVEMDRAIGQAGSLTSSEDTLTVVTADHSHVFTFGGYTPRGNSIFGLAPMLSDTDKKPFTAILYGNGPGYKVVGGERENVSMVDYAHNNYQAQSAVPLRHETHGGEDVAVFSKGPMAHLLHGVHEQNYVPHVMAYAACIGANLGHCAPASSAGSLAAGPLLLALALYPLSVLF
# [25] = Luminescence Cell-Based Dose Retest to Confirm Inhibitors of Cancer Stem Cells. [Related pubchem assays (depositor defined):AID2717, AID2721]; format: functional; conditions: Homo sapiens
# SUMO E1/E2 = SUMO E1/E2 (Homo sapiens, UniProt P63279+Q9UBE0+Q9UBT2); test: SAR analysis of SUMOylation using HTRF in an in-Vitro dose response assay. [Related pubchem assays (depositor defined):AID2006, AID2011, AID2018, AID2069, AID2658]; format: functional
# Chain of SUMO E1/E2 (Q9UBE0 whole entry): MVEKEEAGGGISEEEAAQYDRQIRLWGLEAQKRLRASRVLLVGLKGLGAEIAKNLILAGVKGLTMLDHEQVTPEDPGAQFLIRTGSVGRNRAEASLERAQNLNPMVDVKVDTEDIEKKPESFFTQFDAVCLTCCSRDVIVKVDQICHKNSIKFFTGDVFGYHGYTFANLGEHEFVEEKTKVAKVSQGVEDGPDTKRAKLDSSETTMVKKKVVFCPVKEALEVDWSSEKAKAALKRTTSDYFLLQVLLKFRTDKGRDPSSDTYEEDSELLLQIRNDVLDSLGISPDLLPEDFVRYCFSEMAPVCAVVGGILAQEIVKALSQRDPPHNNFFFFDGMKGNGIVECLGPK
# Chain of SUMO E1/E2 (Q9UBT2 whole entry): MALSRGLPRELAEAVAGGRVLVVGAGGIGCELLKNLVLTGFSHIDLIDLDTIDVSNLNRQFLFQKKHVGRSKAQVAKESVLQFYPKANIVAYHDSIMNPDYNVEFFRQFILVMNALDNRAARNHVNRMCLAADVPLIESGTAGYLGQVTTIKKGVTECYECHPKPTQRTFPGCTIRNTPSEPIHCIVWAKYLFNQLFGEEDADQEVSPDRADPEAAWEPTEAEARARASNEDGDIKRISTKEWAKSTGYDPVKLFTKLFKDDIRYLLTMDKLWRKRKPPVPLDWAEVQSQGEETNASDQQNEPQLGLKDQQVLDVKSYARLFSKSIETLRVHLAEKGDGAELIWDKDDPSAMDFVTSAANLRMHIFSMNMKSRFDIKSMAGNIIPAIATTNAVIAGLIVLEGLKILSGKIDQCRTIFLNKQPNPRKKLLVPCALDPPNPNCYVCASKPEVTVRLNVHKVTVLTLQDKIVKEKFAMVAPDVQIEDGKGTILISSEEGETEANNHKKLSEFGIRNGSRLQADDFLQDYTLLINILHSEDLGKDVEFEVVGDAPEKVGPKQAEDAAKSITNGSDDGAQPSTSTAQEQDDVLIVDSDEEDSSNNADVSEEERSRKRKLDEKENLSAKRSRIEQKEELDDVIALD
# Chain of SUMO E1/E2 (P63279 whole entry): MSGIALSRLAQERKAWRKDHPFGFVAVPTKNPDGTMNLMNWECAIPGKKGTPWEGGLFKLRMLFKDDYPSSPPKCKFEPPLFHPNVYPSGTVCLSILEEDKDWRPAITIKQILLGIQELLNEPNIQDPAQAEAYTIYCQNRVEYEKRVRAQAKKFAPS
# T5 sequence (Q01196 whole entry, the tested form may be a part): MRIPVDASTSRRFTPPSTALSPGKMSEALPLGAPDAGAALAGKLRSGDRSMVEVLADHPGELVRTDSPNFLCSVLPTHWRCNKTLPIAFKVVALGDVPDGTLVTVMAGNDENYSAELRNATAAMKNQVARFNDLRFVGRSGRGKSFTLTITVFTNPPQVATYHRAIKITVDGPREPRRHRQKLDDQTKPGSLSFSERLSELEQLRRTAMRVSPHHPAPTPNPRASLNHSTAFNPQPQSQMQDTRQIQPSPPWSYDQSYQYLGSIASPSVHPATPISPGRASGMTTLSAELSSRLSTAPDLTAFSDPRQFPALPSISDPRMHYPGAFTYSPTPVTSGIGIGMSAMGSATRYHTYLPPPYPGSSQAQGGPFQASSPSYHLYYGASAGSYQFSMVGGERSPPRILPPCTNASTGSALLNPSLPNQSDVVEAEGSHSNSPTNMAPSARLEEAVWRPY
# T5 sequence (Q13951 whole entry, the tested form may be a part): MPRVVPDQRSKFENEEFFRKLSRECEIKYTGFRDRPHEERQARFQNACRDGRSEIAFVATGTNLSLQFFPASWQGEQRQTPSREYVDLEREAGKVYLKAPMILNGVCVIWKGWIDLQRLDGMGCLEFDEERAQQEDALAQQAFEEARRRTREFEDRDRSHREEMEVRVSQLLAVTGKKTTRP
# Chain of Large T antigen (P03070 whole entry): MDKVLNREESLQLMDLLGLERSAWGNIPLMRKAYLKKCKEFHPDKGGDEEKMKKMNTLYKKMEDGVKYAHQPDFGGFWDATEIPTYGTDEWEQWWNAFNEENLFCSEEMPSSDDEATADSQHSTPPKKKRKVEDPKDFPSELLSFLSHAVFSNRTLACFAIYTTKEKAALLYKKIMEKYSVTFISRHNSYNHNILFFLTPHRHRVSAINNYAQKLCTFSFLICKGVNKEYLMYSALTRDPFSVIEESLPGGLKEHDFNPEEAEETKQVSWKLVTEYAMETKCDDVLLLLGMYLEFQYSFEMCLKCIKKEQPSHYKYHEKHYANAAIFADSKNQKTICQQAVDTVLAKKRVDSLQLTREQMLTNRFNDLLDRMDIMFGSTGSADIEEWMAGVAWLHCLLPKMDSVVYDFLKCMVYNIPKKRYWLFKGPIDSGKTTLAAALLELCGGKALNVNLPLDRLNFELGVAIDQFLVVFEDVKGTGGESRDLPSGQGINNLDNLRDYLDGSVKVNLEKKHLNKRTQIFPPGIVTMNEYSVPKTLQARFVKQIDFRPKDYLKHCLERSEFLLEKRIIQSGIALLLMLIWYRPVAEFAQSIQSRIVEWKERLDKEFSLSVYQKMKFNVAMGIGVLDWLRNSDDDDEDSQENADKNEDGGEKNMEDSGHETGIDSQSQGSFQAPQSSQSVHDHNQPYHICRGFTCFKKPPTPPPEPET
# Chain of FAD-linked sulfhydryl oxidase ALR (P55789 whole entry): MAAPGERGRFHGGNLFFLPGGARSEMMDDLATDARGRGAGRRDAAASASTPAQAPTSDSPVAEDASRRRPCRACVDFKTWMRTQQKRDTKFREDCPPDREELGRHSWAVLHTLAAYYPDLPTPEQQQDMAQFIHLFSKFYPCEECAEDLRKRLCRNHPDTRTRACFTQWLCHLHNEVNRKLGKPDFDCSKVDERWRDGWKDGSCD
# Chain of Intestinal-type alkaline phosphatase (Mus musculus, UniProt P24822) (P24822 whole entry): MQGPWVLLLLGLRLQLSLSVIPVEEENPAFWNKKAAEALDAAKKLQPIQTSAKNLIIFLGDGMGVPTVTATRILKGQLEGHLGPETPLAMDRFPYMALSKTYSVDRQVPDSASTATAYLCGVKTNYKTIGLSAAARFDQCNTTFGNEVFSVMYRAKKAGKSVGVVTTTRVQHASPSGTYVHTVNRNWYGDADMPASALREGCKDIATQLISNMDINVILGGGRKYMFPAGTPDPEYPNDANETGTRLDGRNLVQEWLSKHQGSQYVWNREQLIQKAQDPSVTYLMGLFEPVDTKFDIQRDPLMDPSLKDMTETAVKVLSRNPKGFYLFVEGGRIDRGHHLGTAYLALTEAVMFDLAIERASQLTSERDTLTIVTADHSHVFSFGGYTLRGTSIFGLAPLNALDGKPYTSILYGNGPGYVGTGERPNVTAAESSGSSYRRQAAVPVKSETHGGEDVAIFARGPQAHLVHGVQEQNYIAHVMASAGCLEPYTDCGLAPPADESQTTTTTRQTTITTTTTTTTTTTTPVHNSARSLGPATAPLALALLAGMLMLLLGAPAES
# Chain of Intestinal-type alkaline phosphatase (Homo sapiens, UniProt P09923) (P09923 whole entry): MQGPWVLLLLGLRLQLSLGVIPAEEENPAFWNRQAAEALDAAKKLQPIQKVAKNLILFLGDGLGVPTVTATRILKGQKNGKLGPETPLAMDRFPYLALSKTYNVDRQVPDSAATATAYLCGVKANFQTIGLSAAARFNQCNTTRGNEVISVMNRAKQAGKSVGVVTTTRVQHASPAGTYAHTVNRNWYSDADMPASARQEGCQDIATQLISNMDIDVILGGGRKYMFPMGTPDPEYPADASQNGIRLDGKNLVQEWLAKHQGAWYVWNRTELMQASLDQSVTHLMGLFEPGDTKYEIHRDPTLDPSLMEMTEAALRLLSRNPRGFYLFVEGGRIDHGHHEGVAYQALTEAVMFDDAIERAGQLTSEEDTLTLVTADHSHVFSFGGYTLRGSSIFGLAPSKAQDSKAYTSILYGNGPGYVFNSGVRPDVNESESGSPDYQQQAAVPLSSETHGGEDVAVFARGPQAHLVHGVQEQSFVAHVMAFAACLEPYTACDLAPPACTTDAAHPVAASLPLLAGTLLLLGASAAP
# Chain of Procathepsin L (P07711 whole entry): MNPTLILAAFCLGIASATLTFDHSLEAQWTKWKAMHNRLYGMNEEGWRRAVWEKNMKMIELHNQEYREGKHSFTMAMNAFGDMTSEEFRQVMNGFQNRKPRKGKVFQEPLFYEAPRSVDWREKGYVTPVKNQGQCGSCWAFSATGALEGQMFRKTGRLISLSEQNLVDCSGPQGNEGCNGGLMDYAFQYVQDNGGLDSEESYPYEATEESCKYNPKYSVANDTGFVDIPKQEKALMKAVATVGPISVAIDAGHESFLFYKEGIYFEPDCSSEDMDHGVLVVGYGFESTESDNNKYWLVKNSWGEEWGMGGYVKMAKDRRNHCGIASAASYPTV
# Chain of Protein Wnt-3a (P27467 whole entry): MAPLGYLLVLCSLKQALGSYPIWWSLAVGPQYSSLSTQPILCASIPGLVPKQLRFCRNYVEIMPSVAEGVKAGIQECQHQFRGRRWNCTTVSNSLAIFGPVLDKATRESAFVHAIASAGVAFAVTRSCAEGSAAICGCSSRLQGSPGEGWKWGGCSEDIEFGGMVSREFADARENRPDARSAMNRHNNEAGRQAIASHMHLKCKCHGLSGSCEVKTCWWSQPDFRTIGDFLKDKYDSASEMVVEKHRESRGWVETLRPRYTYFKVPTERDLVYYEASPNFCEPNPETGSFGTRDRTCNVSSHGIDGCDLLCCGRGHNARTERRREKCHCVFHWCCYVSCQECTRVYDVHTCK
smiles,measurement,setting,value
O=C(Nc1nc(-c2ccccn2)cs1)c1cccc(-n2cnnn2)c1,AC50,INS1,1.56 µM (active)
same,AC50,[1],2.43 µM (active)
same,EC50,Streptococcus,> 150 µM (not active)
same,IC50,[2],2.54 µM (active)
same,EC50,Streptokinase A,> 150 µM (not active)
same,EC50,cells [3],> 350 µM (not active)
same,IC50,H9c2,> 79 µM (inactive)
same,AC50,[4],2.58 µM (active)
same,EC50,cells [5],> 350 µM (not active)
same,AC50,[6],8.31 µM (active)
same,EC50,[7],24.7 µM (active)
same,IC50,[8],2.43 µM (active)
COc1ccccc1NC(=O)CN1CCC(n2c(C)nc3cc(F)ccc32)CC1,IC50,Bcl-2-related protein A1,> 20 µM (inactive)
same,EC50,HEK293 [9],> 59.6 µM (inactive)
same,IC50,[10],1.78 µM (active)
same,EC50,HEK293 [11],> 59.6 µM (inactive)
same,IC50,[12],1.53 µM (active)
Oc1ccc(O)c(-c2cnns2)c1,EC50,[13],47.1 µM (active)
same,EC50,[14],6.91 µM (active)
same,IC50,[15],33.8 µM (active)
same,IC50,Aspartyl aminopeptidase,1.89 µM (active)
same,IC50,Procathepsin L,> 59.6 µM (not active)
same,EC50,[16],365 µM (active)
same,EC50,[17],> 300 µM (not active)
same,IC50,Large T antigen,10 µM (active)
same,IC50,[18],20.5 µM (active)
same,AC50,[19],4.57 µM (active)
COc1ccc(NC(=O)CNC(=O)c2nn(-c3ccc(OC)c(Cl)c3)c(=O)c3ccccc23)c(OC)c1,AC50,[20],21.5 µM (active)
CCCOc1ccccc1N=C(NC(=O)COc1ccc(OC)cc1)Nc1nc(C)cc(C)n1,AC50,[1],6.58 µM (active)
same,IC50,[2],3.16 µM (active)
same,AC50,[4],3.24 µM (active)
same,AC50,[6],49.3 µM (active)
same,IC50,Protein Wnt-3a,6.39 µM (active)
same,IC50,[8],2.3 µM (active)
same,EC50,[21],8.53 µM (active)
Cc1ccc(C)c(NC(=O)CCNS(=O)(=O)c2ccc3[nH]c(=O)oc3c2)c1,IC50,[22],5.21 µM (active)
same,IC50,[23],> 100 µM (inactive)
same,IC50,[24],22.6 µM (active)
O=C(NCCC1=CCCCC1)c1coc(=O)c(Br)c1,AC50,[25],6.05 µM (active)
same,EC50,[13],28.9 µM (active)
same,EC50,HEK293 [9],> 59.6 µM (inactive)
same,EC50,[16],28.6 µM (active)
same,EC50,HEK293 [11],> 59.6 µM (inactive)
O=c1c2ccccc2nc(COc2ccccc2)n1N=Cc1cc([N+](=O)[O-])ccc1O,IC50,SUMO E1/E2,43.7 µM (active)
